# The supplement of paper PMC9013687
# ± gives the standard deviation of the averaged measurements.
# How the values were obtained:
# [1] = system: Danio rerio embryo; test: EC50 Yolk sac size_Increase; settings: exposure time: 4 dpf
# Method: (§1)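 Zebrafish embryos (UFZ-OBI strain) were exposed from 2 hpf for 48 h (2 dpf) or 96 h (4 dpf) at 28 °C; spontaneous tail coiling was scored at 25 hpf. Morphological features from automated image analysis (FishInspector), heart rate and locomotor response were fitted with drc models. Quantal endpoints were dichotomised at 2.5 SD from controls and fitted with a log-logistic model; heart rate, pigmentation and STC were normalised to the replicate control mean. Betamethasone was tested as betamethasone dipropionate, diflorasone as diflorasone diacetate.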
# [2] = system: Danio rerio embryo; test: EC10 Otolith-eye distance_Decrease; higher = less potent; settings: exposure time: 4 dpf
# Method: as §1
# [3] = system: Danio rerio embryo; test: EC20 Eye size_Decrease; higher = less potent
# Method: as §1
# [4] = system: Danio rerio embryo; test: EC50 Body length_Decrease
# Method: as §1
# [5] = system: Danio rerio embryo; test: EC10 Curvature_Increase; higher = less potent
# Method: as §1
# [6] = system: Danio rerio embryo; test: EC50 Curvature_Increase
# Method: as §1
# [7] = system: Danio rerio embryo; test: EC10 Pericard size_Increase; higher = less potent
# Method: as §1
# [8] = system: Danio rerio embryo; test: EC20 Eye-jaw distance_Decrease; higher = less potent; settings: exposure time: 4 dpf
# Method: as §1
# [9] = system: Danio rerio embryo
# Method: as §1
# [10] = system: Danio rerio embryo; test: EC50 Eye-jaw distance_Decrease; settings: exposure time: 4 dpf
# Method: as §1
# [11] = system: Danio rerio embryo; test: EC20 Curvature_Increase; higher = less potent
# Method: as §1
# [12] = system: Danio rerio embryo; test: EC10 Bladder size_Decrease; higher = less potent; settings: exposure time: 4 dpf
# Method: as §1
# [13] = system: Danio rerio embryo; test: EC20 Otolith-eye distance_Decrease; higher = less potent; settings: exposure time: 4 dpf
# Method: as §1
# [14] = system: Danio rerio embryo; test: EC10 Yolk sac size_Increase; higher = less potent; settings: exposure time: 4 dpf
# Method: as §1
# [15] = system: Danio rerio embryo; settings: exposure time: 4 dpf
# Method: as §1
# [16] = system: Danio rerio embryo; test: EC50 Otolith-eye distance_Decrease; settings: exposure time: 4 dpf
# Method: as §1
# [17] = system: Danio rerio embryo; test: EC20 Pericard size_Increase; higher = less potent
# Method: as §1
# [18] = system: Danio rerio embryo; test: EC10 Body length_Decrease; higher = less potent
# Method: as §1
# [19] = system: Danio rerio embryo; test: EC20 Body length_Decrease; higher = less potent
# Method: as §1
# [20] = system: Danio rerio embryo; test: EC20 LMR dark; higher = less potent; settings: exposure time: 4 dpf
# Method: as §1
# [21] = system: Danio rerio embryo; test: EC50 Pericard size_Increase
# Method: as §1
# [22] = system: Danio rerio embryo; test: EC10 Eye-jaw distance_Decrease; higher = less potent; settings: exposure time: 4 dpf
# Method: as §1
# [23] = system: Danio rerio embryo; test: spontaneous tail coiling frequency (coils/min/embryo); higher = more spontaneous movement; settings: 25 hpf
# Method: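 Spontaneous tail coilings of zebrafish embryos exposed from 2 hpf were recorded at 24-25 hpf in 1-min videos and detected by a KNIME workflow from grey-value variance. Betamethasone was tested as the dipropionate, diflorasone as the diacetate.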
# [24] = system: Danio rerio embryo; test: EC20 Yolk sac size_Increase; higher = less potent; settings: exposure time: 4 dpf
# Method: as §1
# [25] = system: Danio rerio embryo; test: EC10 LMR dark; higher = less potent; settings: exposure time: 4 dpf
# Method: as §1
# [26] = system: Danio rerio embryo; test: EC20 Bladder size_Decrease; higher = less potent; settings: exposure time: 4 dpf
# Method: as §1
# [27] = system: Danio rerio embryo; test: EC10 Any effect; higher = less potent
# Method: as §1
# [28] = system: Danio rerio embryo; test: EC50 Bladder size_Decrease; settings: exposure time: 4 dpf
# Method: as §1
# [29] = system: Danio rerio embryo; test: EC20 Any effect; higher = less potent
# Method: as §1
structure (smiles),measurement,setting,value
O=C(O)CCc1nc(-c2ccccc2)c(-c2ccccc2)o1 [Oxaprozin],EC50 Yolk sac size Increase,[1],22.6 µM
same,EC10 Otolith-eye distance Decrease,[2],16.5 µM
same,EC20 Eye size Decrease,[3]; exposure time: 2 dpf,61.2 µM
same,EC20 Eye size Decrease,[3]; exposure time: 4 dpf,22.7 µM
same,EC50 Body length Decrease,[4]; exposure time: 2 dpf,38 µM
same,EC50 Body length Decrease,[4]; exposure time: 4 dpf,27.1 µM
same,EC10 Curvature Increase,[5]; exposure time: 2 dpf,28.7 µM
same,EC10 Curvature Increase,[5]; exposure time: 4 dpf,21.8 µM
same,EC50 Curvature Increase,[6]; exposure time: 2 dpf,61.4 µM
same,EC50 Curvature Increase,[6]; exposure time: 4 dpf,30.8 µM
same,EC10 Pericard size Increase,[7]; exposure time: 2 dpf,31.1 µM
same,EC10 Pericard size Increase,[7]; exposure time: 4 dpf,11.8 µM
same,EC20 Eye-jaw distance Decrease,[8],15.4 µM
same,EC50 Any effect,[9]; exposure time: 2 dpf,30.2 µM
same,EC50 Any effect,[9]; exposure time: 4 dpf,20.2 µM
same,EC50 Pigmentation increase,[9]; exposure time: 4 dpf,35.6 µM
same,EC50 Eye-jaw distance Decrease,[10],21.5 µM
same,EC20 Curvature Increase,[11]; exposure time: 2 dpf,38 µM
same,EC20 Curvature Increase,[11]; exposure time: 4 dpf,24.8 µM
same,EC10 Bladder size Decrease,[12],11.5 µM
same,EC20 Otolith-eye distance Decrease,[13],19.2 µM
same,EC10 Yolk sac size Increase,[14],13.4 µM
same,EC50 LMR dark,[15],16.2 µM
same,EC50 Otolith-eye distance Decrease,[16],24.8 µM
same,EC20 Pericard size Increase,[17]; exposure time: 2 dpf,38.6 µM
same,EC20 Pericard size Increase,[17]; exposure time: 4 dpf,14.1 µM
same,EC10 Body length Decrease,[18]; exposure time: 2 dpf,25.1 µM
same,EC10 Body length Decrease,[18]; exposure time: 4 dpf,19.3 µM
same,EC20 Body length Decrease,[19]; exposure time: 2 dpf,29.3 µM
same,EC20 Body length Decrease,[19]; exposure time: 4 dpf,21.8 µM
same,EC20 LMR dark,[20],13.3 µM
same,EC50 Pericard size Increase,[21]; exposure time: 2 dpf,55.9 µM
same,EC50 Pericard size Increase,[21]; exposure time: 4 dpf,19.1 µM
same,EC10 Eye-jaw distance Decrease,[22],12.7 µM
same,spontaneous tail coiling frequency,[23]; 15.2 µM,4.43
same,spontaneous tail coiling frequency,[23]; 17 µM,3.98
same,spontaneous tail coiling frequency,[23]; 22.7 µM,4.29
same,spontaneous tail coiling frequency,[23]; 34.1 µM,4.85 ± 1.1
same,spontaneous tail coiling frequency,[23]; 51.1 µM,5.84
same,spontaneous tail coiling frequency,[23]; 68.2 µM,4.34
same,spontaneous tail coiling frequency,[23]; 85.2 µM,8.82
same,spontaneous tail coiling frequency,[23]; 102.3 µM,6.78
same,EC20 Yolk sac size Increase,[24],16.3 µM
same,EC10 LMR dark,[25],11.8 µM
same,EC20 Bladder size Decrease,[26],11.8 µM
same,EC10 Any effect,[27]; exposure time: 2 dpf,14.9 µM
same,EC10 Any effect,[27]; exposure time: 4 dpf,13 µM
same,EC50 Bladder size Decrease,[28],12.2 µM
same,EC20 Any effect,[29]; exposure time: 2 dpf,19.3 µM
same,EC20 Any effect,[29]; exposure time: 4 dpf,15.3 µM
